Measurements published in paper PMC6978800, “FAMIN Is a Multifunctional Purine Enzyme Enabling the Purine Nucleotide Cycle” (Cell, 2020).

Key:
YfiH = target: T1, YfiH (Escherichia coli, UniProt P33644); assay: LC-MS of inosine and adenine; type: biochemical; conditions: 10 μM substrate, PBS pH 7.4, 37°C, 1 h
T1 construct: gene pgeF; synthetic gene in pPSG-IBA105 (Strep-tag); expressed in E. coli BL21(DE3); StrepTrap and size exclusion
T1 sequence (P33644 1-243): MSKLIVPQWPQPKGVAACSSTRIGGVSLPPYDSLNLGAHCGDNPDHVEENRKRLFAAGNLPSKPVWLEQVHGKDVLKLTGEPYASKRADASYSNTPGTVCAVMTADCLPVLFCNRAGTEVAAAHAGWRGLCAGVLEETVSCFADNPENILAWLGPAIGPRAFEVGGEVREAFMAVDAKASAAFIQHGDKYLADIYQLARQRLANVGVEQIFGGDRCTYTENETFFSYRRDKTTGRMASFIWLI

YlmD [1] = target: T2, YlmD (Geobacillus stearothermophilus, UniProt P84138); assay: LC-MS of inosine and adenine; type: biochemical; conditions: 10 μM substrate, PBS pH 7.4, 37°C, 1 h
T2 construct: gene pgeF; synthetic gene in pPSG-IBA105 (Strep-tag); expressed in E. coli BL21(DE3); StrepTrap and size exclusion
T2 sequence (P84138 1-274): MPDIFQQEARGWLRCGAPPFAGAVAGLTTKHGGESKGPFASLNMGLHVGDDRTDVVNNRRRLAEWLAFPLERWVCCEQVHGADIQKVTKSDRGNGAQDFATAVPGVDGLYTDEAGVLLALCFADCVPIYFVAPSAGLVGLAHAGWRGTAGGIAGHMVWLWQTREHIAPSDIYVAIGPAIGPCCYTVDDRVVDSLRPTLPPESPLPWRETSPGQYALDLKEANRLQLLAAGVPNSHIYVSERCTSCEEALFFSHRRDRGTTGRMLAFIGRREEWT

FAMIN^254I = target: T3, FAMIN^254I (Homo sapiens, UniProt Q8IV20); assay: LC-MS product quantitation, Michaelis-Menten; type: biochemical; conditions: PBS pH 7.4, 37°C; phosphate as co-substrate of phosphorolysis; read-out: apparent Km
T3 construct: gene LACC1; full-length, N-terminal Twin-Strep-tag with TEV site, tag cut (kept in select experiments); expressed in HEK293T; monomer; 430 residues
T3 sequence (Q8IV20 1-430): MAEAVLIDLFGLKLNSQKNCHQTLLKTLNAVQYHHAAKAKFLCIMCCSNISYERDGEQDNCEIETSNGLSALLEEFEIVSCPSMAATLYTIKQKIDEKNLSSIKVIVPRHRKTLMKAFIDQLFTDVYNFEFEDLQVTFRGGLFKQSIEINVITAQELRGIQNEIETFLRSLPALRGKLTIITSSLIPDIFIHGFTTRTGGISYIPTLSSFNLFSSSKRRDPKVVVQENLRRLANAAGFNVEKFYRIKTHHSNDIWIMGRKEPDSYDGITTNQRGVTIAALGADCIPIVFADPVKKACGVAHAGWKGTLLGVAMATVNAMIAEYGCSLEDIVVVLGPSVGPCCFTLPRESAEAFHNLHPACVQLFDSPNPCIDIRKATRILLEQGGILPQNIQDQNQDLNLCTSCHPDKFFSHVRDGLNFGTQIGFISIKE

YlmD [2] = target: T2, YlmD; assay: X-ray crystal structure, soaked crystals, […] Å; type: binding; conditions: soak with 18.7 mM inosine, 0.5 mM sodium phosphate, 0.5 mM zinc sulfate, pH 7.5; active site, ribose partially hydrolyzed or disordered
YlmD [3] = target: T2, YlmD; assay: LC-MS of adenine; type: biochemical; conditions: 10 μM substrate, PBS pH 7.4, 37°C, 1 h

Km (FAMIN^254I)	Compound	LC-MS of inosine and adenine (YfiH)	LC-MS of inosine and adenine (YlmD [1])	X-ray crystal structure, soaked crystals, 1.2 Å (YlmD [2])	LC-MS of adenine (YlmD [3])
41 µM	O=c1[nH]cnc2c1ncn2[C@@H]1O[C@H](CO)[C@@H](O)[C@H]1O [Inosine]			unambiguously identifying the purine ring of a bound inosine molecule	
1 µM	CSC[C@H]1O[C@@H](n2cnc3c(N)ncnc32)[C@H](O)[C@@H]1O [S-methyl-5′-thioadenosine]				YlmD and YfiH metabolized adenosine to inosine and adenine, MTA to adenine

Compound	Km (FAMIN^254I)	LC-MS of inosine and adenine (YfiH)	LC-MS of inosine and adenine (YlmD [1])	X-ray crystal structure, soaked crystals, 1.2 Å (YlmD [2])	LC-MS of adenine (YlmD [3])
Nc1ncnc2c1ncn2[C@@H]1O[C@H](CO)[C@@H](O)[C@H]1O [Adenosine]	36 µM	YlmD and YfiH metabolized adenosine to inosine and adenine, MTA to adenine	YlmD and YfiH metabolized adenosine to inosine and adenine, MTA to adenine		
